Measurements published in US4103025A, “Novel terpenes” (Inverni Della Beffa S.p.A., priority 1974, dated 1978).

How the values were obtained:
[1] = LD50 in mice (intraperitoneal); conditions: mouse, in vivo, ip, intraperitoneal administration
Excerpt: The LD50 in mice (as determined with intraperitoneal administration) for sericic acid and sericoside was as follows: […]

[2] = tested on: Carragenin-induced oedema; assay: Anti-inflammatory activity against carragenin-induced oedema in rats, intraperitoneal administration; type: in vivo; conditions: for Volume of the oedema (Average ± S.D.): maximum volume after 3 hours
Procedure: (§1) Anti-inflammatory Activity Against Carragenin-induced Oedema in Rats
(§2) The anti-inflammatory activities of sericoside and sericic acid were determined by measuring the extent to which the oedema caused by sub-plantar administration of carragenin to rats could be inhibited by prior oral and intraperitoneal administration of the substances.
(1) Administration endoperitoneally 30 minutes prior to the injection of
(2) Maximum volume measured after 3 hours.

[3] = tested on: Ultra-violet ray erythema; assay: Activity against ultra-violet ray erythema in guinea pigs (method of Winder et al.); type: in vivo, male albino guinea pigs; conditions: for Erythema Score, 2 h / Erythema Score, 4 h / Erythema Score, 6 h / Erythema Score, 8 h / Erythema Score, 22 h: 5% gel (200 mg) one hour prior to irradiation; for Erythema Score, 2 h: 0 = no erythema, 0.5 = moderate reddening, 1 = marked reddening, 2 = obvious erythema, controls 1.15 ± 0.17; for Erythema Score, 4 h: controls 2.40 ± 0.30; for Erythema Score, 6 h: controls 2.55 ± 0.34; for Erythema Score, 8 h: controls 2.35 ± 0.18; for Erythema Score, 22 h: controls 1.05 ± 0.23; for Percentage inhibition of erythema compared with the controls, 2 h / Percentage inhibition of erythema compared with the controls, 4 h / Percentage inhibition of erythema compared with the controls, 6 h / Percentage inhibition of erythema compared with the controls, 8 h / Percentage inhibition of erythema compared with the controls, 22 h: 5% gel (200 mg), in parentheses
Procedure: Activity Against Ultra-Violet Ray Erythema
Ultra-violet ray erythema in guinea pigs was effected in accordance with the method of Winder et al. (Arch. Int. Pharmacodyn, 106, 261, 1968).
Sericoside and sericic acid were applied to the depilated skin of male albino guinea pigs (average weight 300 - 400 g) in the form of a 5% gel (using 200 mg. thereof) one hour prior to irradiation. The animals were depilated 18 hours prior to the irradiation and irradiated for 3 minutes with a 500 W. mercury vapor lamp at a distance of 18 cms.

[4] = Relative solubility in chlorinated hydrocarbon and aqueous solvents; type: physicochemical; conditions: chlorinated hydrocarbon solvents versus water/aqueous solvents
Experimental wounds = assay: Cicatrizing activity upon experimental wounds in rats (method of Morton & Malone); type: in vivo; conditions: for Healing activity compared with the controls: especially in the first days of treatment; for Percentage remargination (Average ± S.D.), Day I / Percentage remargination (Average ± S.D.), Day II / Percentage remargination (Average ± S.D.), Day III / Percentage remargination (Average ± S.D.), Day V / Percentage remargination (Average ± S.D.), Day VI: topical 10% suspension in 2% CMC, 0.1 ml/rat/day; for Percentage remargination (Average ± S.D.), Day I: control 5.2 ± 1.1; for Percentage remargination (Average ± S.D.), Day II: control 12.8 ± 1.5; for Percentage remargination (Average ± S.D.), Day III: control 21.9 ± 3.1; for Percentage remargination (Average ± S.D.), Day V: control 39.63 ± 2.3; for Percentage remargination (Average ± S.D.), Day VI: control 57.4 ± 2.1
Procedure: Cicatrizing Activity Upon Experimental Wounds in Rats
The cicatrizing activity of sericic acid and sericoside upon experimental wounds was determined on rats in accordance with the method of Morton & Malone (Arch. Int. Pharmacodyn. Ther. 196, 117, 1972).
The treatment of the wounds was effected with a 10% suspension of the active principles in water containing 2% carboxymethyl cellulose (CMC). The suspensions were used in doses of 0.1 ml. for each application, one treatment being effected per day.
Note: Topical treatment effected on each of the days on which measurement
were taken (I, II, III, V, and VI).

[5] = tested on: Carragenin-induced oedema; assay: Anti-inflammatory activity against carragenin-induced oedema in rats, oral administration; type: in vivo; conditions: 200 mg/kg orally for 3 days; for Percentage inhibition of the oedema: 3 hours after carragenin; for Volume of oedema (Average ± S.D.): maximum volume 3 hours after carragenin, controls 0.30 ± 0.005
Procedure: as §1, §2
^(1) Doses administered orally for 3 days; on the third day the
administration was effected two hours before the subplantar injection of
^(2) Maximum volume of the oedema measured 3 hours after the
subplantar injection of carragenin.

[6] = tested on: Gastric ulcer induced by Shay's method; assay: Anti-ulcer activity - gastric ulcer in rats induced by Shay's method; type: in vivo; conditions: for Diminution of the ulcer index compared with the controls: 200 mg/kg orally five times; for Number of ulcers of class I / Number of ulcers of class II / Number of ulcers of class III / Number of ulcers of class IV / Number of ulcers of class V: 13 animals; for Percentage ulcer variation in relation to controls: Table 1; for Ulcer Index: controls 75; for Product of the number of ulcers and the numerical value attributed to the class, class I / Product of the number of ulcers and the numerical value attributed to the class, class II / Product of the number of ulcers and the numerical value attributed to the class, class III / Product of the number of ulcers and the numerical value attributed to the class, class IV / Product of the number of ulcers and the numerical value attributed to the class, class V: in parentheses
Procedure: Anti-ulcer activity - Gastric Ulcer in the rats induced by Shay's method
The anti-ulcer activity of sericic acid and sericoside was determined by administering the compounds to rats in which gastric ulcers were induced by Shay's method. The compounds were administered at the dose of 200 mg./kg. orally five times, at 42, 30, 25 and 6 hours before tying of the pylorus and immediately after the operation and as shown in Table 1 diminished the ulcer index by 48 and 45 per cent respectively, compared with the controls.
^(1) Doses administered orally 5 times, 42, 30, 25 and 6 hours prior
to and immediately after the tying of the pylorus.
^(2) In parentheses the product of the number of ulcers and the
numerical value attributed to the individual classes according to the
individual classes according to the evaluation criterion of T. O.
Keyrilainen and M. K. Paasonen (Acta Pharmacol. et. Toxicol. 13, 22, 1957

[7] = 50 mg/kg endoperitoneally 30 minutes prior to carragenin
[8] = 50 mg/kg endoperitoneally 30 minutes prior to carragenin, controls 0.31 ± 0.006
[9] = 100 mg/kg endoperitoneally 30 minutes prior to carragenin

Compound	LD50 [1] [mg/kg]	Percentage inhibition of the oedema [2, 7] [%]	Volume of the oedema (Average ± S.D.) [2, 8] [mL]	Percentage inhibition of the oedema [2, 9] [%]	Erythema Score, 2 h [3]	Erythema Score, 4 h [3]	Erythema Score, 6 h [3]	Erythema Score, 8 h [3]	Erythema Score, 22 h [3]	Percentage inhibition of erythema compared with the controls, 2 h [3] [%]	Percentage inhibition of erythema compared with the controls, 4 h [3] [%]	Percentage inhibition of erythema compared with the controls, 6 h [3] [%]	Percentage inhibition of erythema compared with the controls, 8 h [3] [%]	Percentage inhibition of erythema compared with the controls, 22 h [3] [%]	Relative solubility [4]	Healing activity compared with the controls (Experimental wounds)	Percentage remargination (Average ± S.D.), Day I (Experimental wounds) [%]	Percentage remargination (Average ± S.D.), Day II (Experimental wounds) [%]	Percentage remargination (Average ± S.D.), Day III (Experimental wounds) [%]	Percentage remargination (Average ± S.D.), Day V (Experimental wounds) [%]	also measured
CC1(C)CC[C@]2(C(=O)O)CC[C@]3(C)C(=CC[C@@H]4[C@@]5(C)C[C@@H](O)[C@H](O)[C@](C)(CO)[C@@H]5CC[C@]43C)[C@@H]2[C@@H]1O	> 1000	25	0.23 ± 0.008	64	0.95 ± 0.12	1.80 ± 0.21	2.05 ± 0.22	1.35 ± 0.18	0.60 ± 0.10	17.4	25	19.6	42.5	42.8	generally more soluble in chlorinated hydrocarbon solvents than in water	significant healing activity	10.4 ± 1.3	23.7 ± 2.3	36.9 ± 2.7	48.00 ± 1.5	Volume of the oedema (Average ± S.D.) ([2]; 100 mg/kg endoperitoneally 30 minutes prior to carragenin, controls 0.31 ± 0.010): 0.11 ± 0.006 mL; Percentage remargination (Average ± S.D.), Day VI (Experimental wounds): 59.0 ± 2.2%; Percentage inhibition of the oedema [5]: 23%; Volume of oedema (Average ± S.D.) [5]: 0.23 ± 0.009 mL; Diminution of the ulcer index compared with the controls [6]: 48 per cent; Number of ulcers of class I ([6]; 200 mg/kg orally, 5 times): 279; Number of ulcers of class II ([6]; 200 mg/kg orally, 5 times): 12; Number of ulcers of class III ([6]; 200 mg/kg orally, 5 times): 3; Number of ulcers of class IV ([6]; 200 mg/kg orally, 5 times): 2; Number of ulcers of class V ([6]; 200 mg/kg orally, 5 times): 9; Percentage ulcer variation in relation to controls ([6]; 200 mg/kg orally, 5 times): -45%; Ulcer Index ([6]; 200 mg/kg orally, 5 times): 45; Product of the number of ulcers and the numerical value attributed to the class, class I ([6]; 200 mg/kg orally, 5 times): 279; Product of the number of ulcers and the numerical value attributed to the class, class II ([6]; 200 mg/kg orally, 5 times): 60; Product of the number of ulcers and the numerical value attributed to the class, class III ([6]; 200 mg/kg orally, 5 times): 30; Product of the number of ulcers and the numerical value attributed to the class, class IV ([6]; 200 mg/kg orally, 5 times): 40; Product of the number of ulcers and the numerical value attributed to the class, class V ([6]; 200 mg/kg orally, 5 times): 180
CC1(C)CC[C@]2(C(=O)OC3O[C@H](CO)[C@@H](O)[C@H](O)[C@H]3O)CC[C@]3(C)C(=CC[C@@H]4[C@@]5(C)C[C@@H](O)[C@H](O)[C@](C)(CO)[C@@H]5CC[C@]43C)[C@@H]2[C@@H]1O (some centres unmarked)	> 1000	35	0.20 ± 0.005	67	0.75 ± 0.17	1.70 ± 0.23	1.95 ± 0.22	1.30 ± 0.25	0.70 ± 0.15	34.8	29.2	23.5	44.7	33.3	generally more soluble in aqueous solvents than chlorinated hydrocarbons	significant healing activity	13.9 ± 1.4	23.7 ± 1.5	36.8 ± 2.0	53.30 ± 2.8	Percentage remargination (Average ± S.D.), Day VI (Experimental wounds): 68.2 ± 2.1%; Percentage inhibition of the oedema [5]: 26%; Volume of oedema (Average ± S.D.) [5]: 0.22 ± 0.010 mL; Diminution of the ulcer index compared with the controls [6]: 45 per cent; Number of non-ulcerated stomachs (per cent) ([6]; 200 mg/kg orally, 5 times): 7.6 per cent; Number of ulcers of class I ([6]; 200 mg/kg orally, 5 times): 369; Number of ulcers of class II ([6]; 200 mg/kg orally, 5 times): 15; Number of ulcers of class III ([6]; 200 mg/kg orally, 5 times): 1; Number of ulcers of class IV ([6]; 200 mg/kg orally, 5 times): 0; Number of ulcers of class V ([6]; 200 mg/kg orally, 5 times): 3; Percentage ulcer variation in relation to controls ([6]; 200 mg/kg orally, 5 times): -48%; Ulcer Index ([6]; 200 mg/kg orally, 5 times): 39.5; Product of the number of ulcers and the numerical value attributed to the class, class I ([6]; 200 mg/kg orally, 5 times): 369; Product of the number of ulcers and the numerical value attributed to the class, class II ([6]; 200 mg/kg orally, 5 times): 75; Product of the number of ulcers and the numerical value attributed to the class, class III ([6]; 200 mg/kg orally, 5 times): 10; Product of the number of ulcers and the numerical value attributed to the class, class IV ([6]; 200 mg/kg orally, 5 times): 0; Product of the number of ulcers and the numerical value attributed to the class, class V ([6]; 200 mg/kg orally, 5 times): 60
